Assay results taken from patent publication US20080318943A1, “Compounds and Uses Thereof - 848” (ASTRAZENECA AB, priority 2007, published 2008).

Experiments:
[1] = target: T1, GABAA2 receptors (α2, β3, γ2 receptor subunits transfected into Sf9 cells) (Homo sapiens, UniProt P18507+P47869); experiment: GABAA2 Binding Method ([3H]-Flunitrazepam displacement); details: [3H]-Flunitrazepam ~2 nM, α2β3γ2 Sf9 membranes, 1 hr at 4° C.
T1 construct: host or cells: Sf9 cells (membranes)
How it was run: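 Membranes from Sf9 cells expressing α2β3γ2 GABAA receptors incubated with ~2 nM (final) [3H]-flunitrazepam and test compound 1 h at 4 °C, then filtered on GF/B plates with cold-buffer washes. Flumazenil-defined controls; percent of control, IC50 and Ki calculated.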

[2] = target: T2, GABAA receptor α2β3γ2 (Homo sapiens, UniProt P18507+P47869); experiment: Two-electrode voltage-clamp potentiation of GABA EC10 current in Xenopus oocytes, GABAA2; type: cell-based; details: percentage potentiation of GABA EC10 current divided by that of diazepam
T2 construct: expressed in transfected cells; host or cells: Xenopus laevis oocytes injected with cRNA
How it was run: (§1)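 Human GABAA receptors expressed in Xenopus oocytes by cRNA injection (α:β:γ molar ratio ~1:1:10 for α1β2γ2, 1:1:1 for α2β3γ2), recorded 2-10 days later by two-electrode voltage clamp at −60 mV in ND-96, pH 7.5. Modulator preapplied 30 s before GABA at per-oocyte EC10. Peak-current percent potentiation over GABA alone, normalised to diazepam.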

[3] = target: T3, GABAA receptor α1β2γ2 (Homo sapiens, UniProt P14867+P18507); experiment: Two-electrode voltage-clamp potentiation of GABA EC10 current in Xenopus oocytes, GABAA1; type: cell-based; details: percentage potentiation of GABA EC10 current divided by that of diazepam
T3 construct: expressed in transfected cells; host or cells: Xenopus laevis oocytes injected with cRNA
How it was run: as §1

T3 sequence (P14867 28-456): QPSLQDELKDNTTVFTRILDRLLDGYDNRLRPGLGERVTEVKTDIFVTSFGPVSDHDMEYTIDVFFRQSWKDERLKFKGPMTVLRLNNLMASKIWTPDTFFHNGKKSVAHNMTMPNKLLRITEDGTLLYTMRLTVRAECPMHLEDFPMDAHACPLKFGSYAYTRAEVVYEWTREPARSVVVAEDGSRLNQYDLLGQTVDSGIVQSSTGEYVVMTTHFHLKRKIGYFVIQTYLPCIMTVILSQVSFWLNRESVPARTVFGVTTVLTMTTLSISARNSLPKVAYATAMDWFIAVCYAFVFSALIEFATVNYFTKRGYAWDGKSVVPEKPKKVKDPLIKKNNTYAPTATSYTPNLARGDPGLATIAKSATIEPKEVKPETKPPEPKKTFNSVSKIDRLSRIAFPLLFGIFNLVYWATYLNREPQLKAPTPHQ
T3 sequence (P47870 25-512 partner limits assumed): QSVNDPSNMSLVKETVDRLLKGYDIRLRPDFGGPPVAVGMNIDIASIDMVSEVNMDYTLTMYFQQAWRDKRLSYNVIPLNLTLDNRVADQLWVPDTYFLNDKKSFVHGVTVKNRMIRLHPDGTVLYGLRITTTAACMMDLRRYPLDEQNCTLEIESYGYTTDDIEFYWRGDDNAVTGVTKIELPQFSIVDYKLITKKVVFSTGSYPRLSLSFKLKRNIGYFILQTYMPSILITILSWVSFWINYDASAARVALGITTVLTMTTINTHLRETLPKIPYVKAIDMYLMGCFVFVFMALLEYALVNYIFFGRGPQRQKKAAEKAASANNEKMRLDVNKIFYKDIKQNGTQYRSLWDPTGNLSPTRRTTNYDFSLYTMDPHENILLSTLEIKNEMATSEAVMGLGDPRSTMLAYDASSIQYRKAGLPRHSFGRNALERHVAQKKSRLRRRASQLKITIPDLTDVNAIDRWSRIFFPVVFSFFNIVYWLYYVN
T3 sequence (P18507 40-475): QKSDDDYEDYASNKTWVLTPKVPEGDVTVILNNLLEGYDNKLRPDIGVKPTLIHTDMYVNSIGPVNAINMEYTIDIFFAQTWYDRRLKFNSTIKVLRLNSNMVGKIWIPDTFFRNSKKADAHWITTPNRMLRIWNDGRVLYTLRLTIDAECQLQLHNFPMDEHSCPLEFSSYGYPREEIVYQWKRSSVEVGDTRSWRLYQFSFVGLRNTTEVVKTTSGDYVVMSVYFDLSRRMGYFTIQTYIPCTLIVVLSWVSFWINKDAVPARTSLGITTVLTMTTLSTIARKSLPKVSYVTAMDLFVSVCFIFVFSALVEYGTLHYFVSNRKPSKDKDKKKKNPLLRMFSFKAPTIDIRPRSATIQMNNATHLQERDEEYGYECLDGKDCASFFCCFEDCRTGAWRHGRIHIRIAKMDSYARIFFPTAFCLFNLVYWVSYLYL
T2 sequence (P47869 29-451): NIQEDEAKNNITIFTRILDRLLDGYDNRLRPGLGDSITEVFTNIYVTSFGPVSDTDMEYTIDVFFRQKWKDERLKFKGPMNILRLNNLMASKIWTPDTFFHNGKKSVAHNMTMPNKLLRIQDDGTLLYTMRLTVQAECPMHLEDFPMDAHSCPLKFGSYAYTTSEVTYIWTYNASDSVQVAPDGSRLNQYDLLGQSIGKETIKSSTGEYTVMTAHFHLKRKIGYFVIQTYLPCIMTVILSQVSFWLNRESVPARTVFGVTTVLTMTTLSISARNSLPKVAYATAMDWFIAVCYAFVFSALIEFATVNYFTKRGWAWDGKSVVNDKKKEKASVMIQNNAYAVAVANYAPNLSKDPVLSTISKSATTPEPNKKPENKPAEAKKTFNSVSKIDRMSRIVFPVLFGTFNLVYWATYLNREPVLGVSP
T2 sequence (P28472 26-473 partner): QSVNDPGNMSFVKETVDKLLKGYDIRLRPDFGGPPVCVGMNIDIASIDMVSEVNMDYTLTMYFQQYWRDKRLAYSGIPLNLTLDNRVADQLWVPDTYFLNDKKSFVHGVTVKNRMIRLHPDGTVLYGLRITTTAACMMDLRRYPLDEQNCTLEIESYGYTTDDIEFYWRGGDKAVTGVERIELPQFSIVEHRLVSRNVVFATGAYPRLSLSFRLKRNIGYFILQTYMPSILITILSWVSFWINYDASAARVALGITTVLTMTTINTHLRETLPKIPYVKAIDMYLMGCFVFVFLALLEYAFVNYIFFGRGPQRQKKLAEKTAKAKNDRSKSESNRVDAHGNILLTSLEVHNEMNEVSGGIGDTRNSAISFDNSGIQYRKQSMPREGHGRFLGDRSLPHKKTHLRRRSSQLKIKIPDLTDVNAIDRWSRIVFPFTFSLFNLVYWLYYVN
T2 sequence (P18507 40-475): as the sequence (P18507 40-475) above
T1 sequence (P47869 29-451): as the sequence (P47869 29-451) above
T1 sequence (P28472 26-473 partner): as the sequence (P28472 26-473 partner) above
T1 sequence (P18507 40-475): as the sequence (P18507 40-475) above

SMILES	Ki [1] [nM]	Relative Potentiation for GABAA2 [2]	Relative Potentiation for GABAA1 [3]
CCCN1Cc2nc3c(-c4cc(C)ccc4C)cccc3c(N)c2C1=O [9-amino-5-(2,5-dimethylphenyl)-2-propyl-2,3-dihydro-1H-pyrrolo[3,4-b]quinolin-1-one]	56.8	0.2	0.22
CCN1Cc2nc3c(-c4c(F)cc(OC)cc4F)c(F)ccc3c(N)c2C1=O [9-amino-5-(2,6-difluoro-4-methoxyphenyl)-2-ethyl-6-fluoro-2,3-dihydro-1H-pyrrolo[3,4-b]quinolin-1-one]	4.5	−0.02	−0.09
CCCN1Cc2nc3c(-c4ccc(C)nc4C)cccc3c(N)c2C1=O [9-amino-5-(2,6-dimethylpyridin-3-yl)-2-propyl-2,3-dihydro-1H-pyrrolo[3,4-b]quinolin-1-one]	2.63	0.41	0.45
CCCN1Cc2nc3c(-c4cc(C)cnc4Cl)cccc3c(N)c2C1=O [9-amino-5-(2-chloro-5-methylpyridin-3-yl)-2-propyl-2,3-dihydro-1H-pyrrolo[3,4-b]quinolin-1-one]	6.63	0.61	0.44
COc1cccc(Cl)c1-c1cccc2c(N)c3c(nc12)CN(C1CCC1)C3=O [9-amino-5-(2-chloro-6-methoxyphenyl)-2-cyclobutyl-2,3-dihydro-1H-pyrrolo[3,4-b]quinolin-1-one]	2.22	0.051	−0.15
COc1cccc(Cl)c1-c1cccc2c(N)c3c(nc12)CN(C1CC1)C3=O [9-amino-5-(2-chloro-6-methoxyphenyl)-2-cyclopropyl-2,3-dihydro-1H-pyrrolo[3,4-b]quinolin-1-one]	14.9	0.052	−0.1
COc1cccc(Cl)c1-c1c(F)ccc2c(N)c3c(nc12)CN(C1CC1)C3=O [9-amino-5-(2-chloro-6-methoxyphenyl)-2-cyclopropyl-6-fluoro-2,3-dihydro-1H-pyrrolo[3,4-b]quinolin-1-one]	4.85	0.013	−0.15
CCCN1Cc2nc3c(-c4cc(OC)ccc4F)cccc3c(N)c2C1=O [9-amino-5-(2-fluoro-5-methoxyphenyl)-2-propyl-2,3-dihydro-1H-pyrrolo[3,4-b]quinolin-1-one]	12.5	0.39	0.39
CCCN1Cc2nc3c(-c4ccc(C)nc4F)cccc3c(N)c2C1=O [9-amino-5-(2-fluoro-6-methylpyridin-3-yl)-2-propyl-2,3-dihydro-1H-pyrrolo[3,4-b]quinolin-1-one]	19.7	0.37	0.22
COc1ccc(CN2Cc3nc4c(-c5cccnc5F)cccc4c(N)c3C2=O)cc1 [9-amino-5-(2-fluoropyridin-3-yl)-2-(4-methoxybenzyl)-2,3-dihydro-1H-pyrrolo[3,4-b]quinolin-1-one]	6.82	0.32	0.18
CCCN1Cc2nc3c(-c4cc(C)ccc4OC)cccc3c(N)c2C1=O [9-amino-5-(2-methoxy-5-methylphenyl)-2-propyl-2,3-dihydro-1H-pyrrolo[3,4-b]quinolin-1-one]	47.2	0.37	0.17
CCCN1Cc2nc3c(-c4cc(C)cnc4OC)cccc3c(N)c2C1=O [9-amino-5-(2-methoxy-5-methylpyridin-3-yl)-2-propyl-2,3-dihydro-1H-pyrrolo[3,4-b]quinolin-1-one]	3.59	0	0.58
CCCN1Cc2nc3c(-c4cccnc4OC)cccc3c(N)c2C1=O [9-amino-5-(2-methoxypyridin-3-yl)-2-propyl-2,3-dihydro-1H-pyrrolo[3,4-b]quinolin-1-one]	42.1	0.58	0.36
CCCN1Cc2nc3c(-c4cccnc4C)cccc3c(N)c2C1=O [9-amino-5-(2-methylpyridin-3-yl)-2-propyl-2,3-dihydro-1H-pyrrolo[3,4-b]quinolin-1-one]	11.4	0.26	0.22
CCCN1Cc2nc3c(-c4cccc(OC)c4)cccc3c(N)c2C1=O [9-amino-5-(3-methoxyphenyl)-2-propyl-2,3-dihydro-1H-pyrrolo[3,4-b]quinolin-1-one]	62.9	0.3	0.31
CCCN1Cc2nc3c(-c4ccc(F)cc4OC)cccc3c(N)c2C1=O [9-amino-5-(4-fluoro-2-methoxyphenyl)-2-propyl-2,3-dihydro-1H-pyrrolo[3,4-b]quinolin-1-one]	60.8	0.2	0.2
CCCN1Cc2nc3c(-c4cnccc4OC)cccc3c(N)c2C1=O [9-amino-5-(4-methoxypyridin-3-yl)-2-propyl-2,3-dihydro-1H-pyrrolo[3,4-b]quinolin-1-one]	39.2	0.62	0.39
CCCN1Cc2nc3c(-c4cnccc4C)cccc3c(N)c2C1=O [9-amino-5-(4-methylpyridin-3-yl)-2-propyl-2,3-dihydro-1H-pyrrolo[3,4-b]quinolin-1-one]	55.7	0.34	0.36
CCCN1Cc2nc3c(-c4cc(Cl)ccc4OC)cccc3c(N)c2C1=O [9-amino-5-(5-chloro-2-methoxyphenyl)-2-propyl-2,3-dihydro-1H-pyrrolo[3,4-b]quinolin-1-one]	39.6	0.54	0.36
CCCN1Cc2nc3c(-c4cc(F)ccc4OC)cccc3c(N)c2C1=O [9-amino-5-(5-fluoro-2-methoxyphenyl)-2-propyl-2,3-dihydro-1H-pyrrolo[3,4-b]quinolin-1-one]	80.3	0.25	0.19
CCCN1Cc2nc3c(-c4ccc(F)nc4C)cccc3c(N)c2C1=O [9-amino-5-(6-fluoro-2-methylpyridin-3-yl)-2-propyl-2,3-dihydro-1H-pyrrolo[3,4-b]quinolin-1-one]	22.3	0.48	1.7
CCCN1Cc2nc3c(-c4cnc(F)c(C)c4)cccc3c(N)c2C1=O [9-amino-5-(6-fluoro-5-methylpyridin-3-yl)-2-propyl-2,3-dihydro-1H-pyrrolo[3,4-b]quinolin-1-one]	30.3	0.32	0.31
COc1ccc(CN2Cc3nc4c(-c5ccc(-c6ccc(Cl)nc6)nc5)cccc4c(N)c3C2=O)cc1OC [9-amino-5-(6′-chloro-2,3′-bipyridin-5-yl)-2-(3,4-dimethoxybenzyl)-2,3-dihydro-1H-pyrrolo[3,4-b]quinolin-1-one]	20.4	0.023	−0.048
COc1ccc(CN2Cc3nc4c(-c5c(F)cccc5OC)cccc4c(N)c3C2=O)cc1 [Example 1, 9-Amino-5-(2-fluoro-6-methoxyphenyl)-2-(4-methoxybenzyl)-2,3-dihydropyrrolo[3,4-b]quinolin-1-one]	9.8	0.2	−0.034
COc1ccc(CN2Cc3nc4c(-c5cc(F)ccc5F)cccc4c(N)c3C2=O)cc1 [Example 2]	44.3	0.13	0.12
COc1ccc(CN2Cc3nc4c(-c5cccnc5OC)cccc4c(N)c3C2=O)cc1 [Example 3, 9-Amino-2-(4-methoxybenzyl)-5-(2-methoxypyridin-3-yl)-2,3-dihydropyrrolo[3,4-b]quinolin-1-one]	22	0.68	0.12
COc1ccc(OC)c(CN2Cc3nc4c(-c5cccnc5OC)cccc4c(N)c3C2=O)c1 [Example 4, 9-Amino-2-(2,5-dimethoxybenzyl)-5-(2-methoxypyridin-3-yl)-2,3-dihydropyrrolo[3,4-b]quinolin-1-one]	31.2	0.18	0.013
CCCN1Cc2nc3c(-c4c(F)cccc4OC)cccc3c(N)c2C1=O [Example 5, 9-Amino-5-(2-fluoro-6-methoxyphenyl)-2-propyl-2,3-dihydropyrrolo[3,4-b]quinolin-1-one]	5.03	0.3	0.11
CCCN1Cc2nc3c(-c4cccc(C)c4C)cccc3c(N)c2C1=O [Example 6, 9-Amino-5-(2,3-dimethylphenyl)-2-propyl-2,3-dihydropyrrolo[3,4-b]quinolin-1-one]	17.3	0.22	0.13
CCCN1Cc2nc3c(-c4cc(C)cc(C)c4)cccc3c(N)c2C1=O [Example 7, 9-Amino-5-(3,5-dimethylphenyl)-2-propyl-2,3-dihydropyrrolo[3,4-b]quinolin-1-one]	94.3	0.27	0.16
